Patent publication US10941143B2, “Imidazo [1,5-a]pyridine compounds and their use” (Alterity Therapeutics Limited, priority 2019, dated 2021)

test system: human neuroblastoma line BE(2)-M17 (M17) cells; test: Measurement of Fe efflux from cells; assay type: cell-based; details: M17 cells pre-loaded with 57Fe, compound 20 μM for 2 h, percentage increase of Fe in media relative to media without compound, read-out: % Fe Efflux Range
Method: Method I: Measurement of Fe Efflux from Cells
Compounds of the current invention were assessed for their ability to efflux iron (Fe) from a cell using the following protocol.
The human neuroblastoma line BE(2)-M17 (M17) cell cultures were acquired from Sigma Aldrich (Catalogue #: 95011816). M17 Cells were maintained in Opti-MEM reduced serum media supplemented with 10% fetal bovine serum (Bovogen, SFBSF) and passaged twice weekly. Cells were cultured at 37° C. in the presence of 5% CO2. Culture supplies were sourced from Thermo Fisher unless otherwise stated.
A solution of ^57Fe cold isotope was prepared by dissolving ^57Fe metal (>95% enrichment, Trace Sciences International) in concentrated HCl to give a final concentration of 573 mM. From this master solution, a 10 mM working solution was prepared in sterile water. The working solution was used within two months of preparation.
M17 cells were loaded with iron initially by seeding into 48-well plates at a density of 0.15×10^6 cells per well in 0.5 mL media. After 48 h, old media was discarded. Fresh media was supplemented with 20 μM ^57Fe isotope, from the 10 mM ^57Fe working solution. Cells received 0.2 mL of this ^57Fe enriched media and were returned to the incubator for 20 h. The ability of experimental compounds to efflux iron was determined by the dissolution of compounds in DMSO and diluted in Hanks' Balanced Salt Solution (HBSS) for treatment of M17 cells. After ^57Fe incubation, cells were rinsed twice with HBSS and treated with 0.15 mL trial compound for 2 h at a concentration of 20 μM. All assays included a relevant vehicle (0.4%-0.8% DMSO) as well as a positive control (20 μM). Following the treatment period, 0.1 mL of media was collected from cells and the extracellular ^57Fe content was analysed via inductively coupled mass spectrometry (ICP-MS, Agilent 7700x series instrument).
To perform this protocol the following supplies were purchased from Sigma Aldrich: anhydrous dimethyl sulfoxide (DMSO, Catalogue #: 276855), Hanks' Balanced Salt Solution supplemented with 20 mM HEPES and 4.2 mM Sodium Bicarbonate (HBSS, pH: 7.4, Catalogue #: H1387).
After 2 h the Fe levels in the media were measured and the increase determined as a percentage increase relative to the cell media in the absence of the compound.

SMILES	activation at 20 µM [%]
Oc1cccnc1-c1nc(-c2cccc(F)c2O)n2ncccc12 [Compound 121]	> 150
Oc1cccnc1-c1nc(-c2cccc(Cl)c2O)n2ncccc12 [Compound 122]	> 150
Cc1ccc(O)c(-c2nc(-c3ncccc3O)c3cccnn23)c1 [Compound 123]	> 150
CN(C)Cc1cccc(-c2nc(-c3ccccc3O)c3ccccn23)c1O [Compound 124, 2-((Dimethylamino)methyl)-6-(1-(2-hydroxyphenyl)imidazo[1,5-a]pyridin-3-yl)phenol]	> 150
COc1cnccc1-c1nc(-c2ccccc2O)c2ccccn12 [Compound 125]	< 30
COC(=O)c1ccccc1-c1nc(-c2ncccc2O)c2ccccn12 [Compound 126]	< 30
Oc1cccnc1-c1nc(-c2ccc(Cl)cc2)n2ccccc12 [Compound 127]	< 30
Oc1cccnc1-c1nc(-c2ccccc2F)n2ccccc12 [Compound 130, 2-(3-(2-Fluorophenyl)imidazo[1,5-a]pyridin-1-yl)pyridin-3-ol]	< 30
Oc1ccccc1-c1nc(-c2cccnc2O)c2ccccn12 [Compound 141, 3-(3-(2-Hydroxyphenyl)imidazo[1,5-a]pyridin-1-yl)pyridin-2-ol]	100 to 150
Cc1cccc(-c2nc(-c3cccnc3O)c3ccccn23)c1O [Compound 142]	30 to 100
Oc1cc(Cl)ccc1-c1nc(-c2cccnc2O)c2ccccn12 [Compound 143]	< 30
Oc1ccc(F)cc1-c1nc(-c2cccnc2O)c2ccccn12 [Compound 144, 3-(3-(5-Fluoro-2-hydroxyphenyl)imidazo[1,5-a]pyridin-1-yl)pyridin-2-ol]	100 to 150
Oc1ncccc1-c1nc(-c2cc(F)cc(F)c2O)n2ccccc12 [Compound 145]	100 to 150
CCN(CC)c1ccc(-c2nc(-c3cccnc3O)c3ccccn23)c(O)c1 [Compound 146]	30 to 100
Cc1ccc(O)c(-c2nc(-c3cccnc3O)c3ccccn23)c1 [Compound 147, 3-(3-(2-Hydroxy-5-methylphenyl)imidazo[1,5-a]pyridin-1-yl)pyridin-2-ol]	100 to 150
Oc1ncccc1-c1nc(-c2cccc(F)c2O)n2ccccc12 [Compound 148]	30 to 100

SMILES	activation at 20 µM [%]
Oc1ccc(Cl)cc1-c1nc(-c2cccnc2O)c2ccccn12 [Compound 149]	30 to 100
Oc1ncccc1-c1nc(-c2cccc(Cl)c2O)n2ccccc12 [Compound 150]	30 to 100
Oc1cccc(F)c1-c1nc(-c2cccnc2O)c2ccccn12 [Compound 152]	30 to 100
COc1ccncc1-c1nc(-c2ccccc2O)n2ccccc12 [Compound 153]	< 30
COc1ccncc1-c1nc(-c2cc(F)ccc2O)n2ccccc12 [Compound 154]	< 30
COc1ccncc1-c1nc(-c2cc(F)cc(F)c2O)n2ccccc12 [Compound 155]	< 30
COc1ccncc1-c1nc(-c2c(O)cccc2F)n2ccccc12 [Compound 156]	< 30
COc1ccncc1-c1nc(-c2cccc(F)c2O)n2ccccc12 [Compound 157]	< 30
Oc1ccncc1-c1nc(-c2ccccc2O)n2ccccc12 [Compound 158]	30 to 100
Oc1ccncc1-c1nc(-c2cc(F)ccc2O)n2ccccc12 [Compound 159]	30 to 100
Oc1ccncc1-c1nc(-c2cc(F)cc(F)c2O)n2ccccc12 [Compound 160]	30 to 100
Oc1ccncc1-c1nc(-c2c(O)cccc2F)n2ccccc12 [Compound 161]	30 to 100
Oc1ccncc1-c1nc(-c2cccc(F)c2O)n2ccccc12 [Compound 162]	30 to 100
COc1ccncc1-c1nc(-c2cccc(C)c2O)n2ccccc12 [Compound 163]	< 30
CN(C)Cc1cccc(-c2nc(-c3cccnc3O)c3ccccn23)c1O [Compound 168]	< 30
Cc1ccc(O)c(-c2nc(-c3cnccc3O)c3ccccn23)c1 [Compound 169]	30 to 100
